“Also recorded” adds a separate entry of the source.
Tests used:
[1] = system: elo-5(RNAi) worms; assay: GC analysis of FA composition in elo-5(RNAi) worms grown on supplemented plates; assay type: in vivo, Caenorhabditis elegans; conditions: for elongation of the supplement to C17ISO: added as food supplements; for incorporation of the supplement into lipids and its elongation (GC): elo-5(RNAi) worms on supplemented plates
Description: A mixed population of well-fed worms were washed off the plates with water, rinsed 3-4 times, and, after aspirating away water, were frozen at −80° C. Fatty Acid Methyl Esters and lipid extraction were performed as described (Miquel and Browse 1992). GC was performed on the HP6890N (Agilent) equipped with a DB-23 column (30 m×250 μm×0.25 μm) (Kniazeva, Sieber et al. 2003). Each experiment was repeated at least five times. Average values and standard deviations were then calculated for each of the compounds in the experiments.
(§1) Ninety μl of the 4 mM solution of FA (Sigma) in 1% NP40 or 10% DMSO was dropped on the side of the bacterial lawn that contained either elo-5 dsRNA-producing plasmid or the control HT115 vector. Two synchronized young adults were plated and their progeny was scored 4 and 5 days later. Each experiment was performed in at least 30 replicates. For recovering elo-5(RNAi) worms from L1 arrest, wild type adults were placed on the elo-5(RNAi) plates. Four days later, their progeny was removed and eggs of the next generation were left on the plates. Hatched L1 were kept for two or four days before transferring as agar chunks to new elo-5(RNAi) plates. FA supplements were added to spots next to the chunks. Ten plates were prepared for each FA supplement. Control plates contained no supplements. […] Neither C15 nor C17 mmBCFA added to let-418(RNAi) plates modified the expected phenotype.

[2] = system: N2; assay: Growth and maturation of wild type N2 on supplemented plates; assay type: in vivo, C. elegans
[3] = system: elo-5(RNAi) worms; assay: Phenotype rescue of elo-5(RNAi) worms using FA supplements; assay type: in vivo, Caenorhabditis elegans; conditions: for plates on which the supplement rescued the elo-5 RNAi defects: FA supplement (90 μl of 4 mM) on elo-5(RNAi) plates, progeny scored 4 and 5 days later, rescued/total plates; for rescue of mmBCFA deficiency: added as food supplements; for plates with partial rescue of the elo-5 RNAi defects: FA supplement on elo-5(RNAi) plates, partially rescued/total plates; for rescue of elo-5(RNAi) phenotype: animals grown on elo-5 RNAi plates with supplement or mmBCFA-producing bacteria
Description: The RNAi feeding strain was E. coli HT115 transformed with either empty pPD129.36 vector (controls) or with dsRNA-producing constructs. Unless stated differently, wild type N2 Bristol animals were plated as synchronized adults.
Ninety μl of the 4 mM solution of FA (Sigma) in 1% NP40 or 10% DMSO was dropped on the side of the bacterial lawn that contained either elo-5 dsRNA-producing plasmid or the control HT115 vector. Two synchronized young adults were plated and their progeny was scored 4 and 5 days later. Each experiment was performed in at least 30 replicates. For recovering elo-5(RNAi) worms from L1 arrest, wild type adults were placed on the elo-5(RNAi) plates. Four days later, their progeny was removed and eggs of the next generation were left on the plates. Hatched L1 were kept for two or four days before transferring as agar chunks to new elo-5(RNAi) plates. FA supplements were added to spots next to the chunks. Ten plates were prepared for each FA supplement. Control plates contained no supplements.

[4] = system: elo-5(gk208); assay: Rescue, growth and maturation of the elo-5(gk208) mutant on supplemented plates; assay type: in vivo, C. elegans
[5] = system: mouse C2C12 (myoblasts); assay: Elongation of exogenous short chain mmBCFA in cultured mouse cells; assay type: cell-based
[6] = Elongation of exogenous short chain mmBCFA in cultured human cells; assay type: cell-based
[7] = system: human cancer; conditions: Yang, Liu et al. 2000; cited from earlier work
[8] = system: elo-5(RNAi) L1-arrested worms; assay: Recovery of elo-5(RNAi) worms from L1 arrest with FA supplements; assay type: in vivo, Caenorhabditis elegans
Description: as §1

[9] = system: lpd-1(RNAi) animals; assay: Rescue of lpd-1(RNAi) feeding defects by supplement; assay type: in vivo, C. elegans; conditions: supplement added to the plates
[10] = system: mmBCFA deficient early L1 larvae; assay: Feeding of mmBCFA deficient early L1 larvae on plates without bacteria; assay type: in vivo, C. elegans; conditions: supplements on the plates without bacteria

COC(=O)CCCCCCCCCC(C)C [C13ISO-methyl ester]
elongation of the supplement to C17ISO [1]: can be efficiently elongated to C17ISO

CC(C)CCCCCCCCCC(=O)O [C13ISO]
growth rate ([2]; N2, 0.75 mM and 1 mM): grow as fast as N2 without supplements | developmental stage on forth day after hatching ([2]; N2, 10 mM): remain at L4 or young adults stages | effect on growth and maturation ([2]; N2, 2.5-10 mM): slowing at the L4 stage accompanied by a delay in the adult maturation | brood size ([2]; N2, high concentrations (2.5-10 mM)): maintain wild type brood size | ability to modulate growth rate between L4 and adult stage ([2]; dietary supplement): modulate growth rate between L4 and adult stage | plates on which the supplement rescued the elo-5 RNAi defects [3]: 0/30 | rescue of mmBCFA deficiency [3]: rescue mmBCFA deficiency | egg laying and survival on the second day of adulthood ([4]; elo-5(gk208), 0.75 mM and 1 mM): fail to lay eggs and die a few days later | growth rate ([4]; elo-5(gk208), 0.75 mM and 1 mM): grow as fast as N2 without supplements | developmental stage on forth day after hatching ([4]; elo-5(gk208), 10 mM): remain at L4 or young adults stages | effect on growth and maturation ([4]; elo-5(gk208), 2.5-10 mM): slowing at the L4 stage accompanied by a delay in the adult maturation | brood size ([4]; elo-5(gk208), high concentrations (2.5-10 mM)): maintain wild type brood size | animals that reach adulthood and have viable progeny ([4]; supplement concentration above 0.75 mM): 100% | rescue from elo-5(gk208) phenotype ([4]; supplement concentration range 0-0.5 mM): no rescue; also recorded: does not rescue | elongation into C15ISO and C17ISO in vitro [5]: able to elongate | elongation into C15ISO and C17ISO in vitro ([6]; RIN-M5F (pancreatic beta cells)): able to elongate | elongation into C15ISO and C17ISO in vitro ([6]; SY-5Y (neuroblastoma)): able to elongate

CC(C)CCCCCCCCCCCC(=O)O [C15ISO, 13-methyl myristic acid]
effect on human cancer [7]: growth inhibitor of human cancer where it selectively induces apoptosis | incorporation of the supplement into lipids and its elongation (GC) [1]: no accumulation of C15ISO or its elongation to C17ISO was detectable | plates with partial rescue of the elo-5 RNAi defects [3]: 23/38 | rescue of mmBCFA deficiency [3]: rescue mmBCFA deficiency | rescue of elo-5(RNAi) phenotype [3]: partially rescued

COC(=O)CCCCCCCCCCCC(C)C [C15ISO-methyl ester]
elongation of the supplement to C17ISO [1]: can be efficiently elongated to C17ISO

CCC(C)CCCCCCCCCCC(=O)O (stereo not shown) [C15anteISO]
plates with partial rescue of the elo-5 RNAi defects [3]: 20/28

CCCCCCCCCCCCCCCC(=O)O [C16:0, palmitic acid, reference compound]
plates on which the supplement rescued the elo-5 RNAi defects [3]: 0/30

CCCCCC/C=C\CCCCCCCC(=O)O [C16:1 n7, reference compound]
plates on which the supplement rescued the elo-5 RNAi defects [3]: 0/30

CCCCCCCCCCCCCCCCC(=O)O [C17:0, reference compound]
plates on which the supplement rescued the elo-5 RNAi defects [3]: 0/30

CC(C)CCCCCCCCCCCCCC(=O)O [C17ISO, 15-methyl hexadecanoic acid]
incorporation of the supplement into lipids and its elongation (GC) [1]: significantly incorporated into lipids | arrested L1 rescued to full growth and proliferation ([8]; four-day-old L1): ~1% | arrested L1 rescued to full growth and proliferation ([8]; two day-arrested L1): about 50% | rescue of lpd-1 RNAi feeding defects (slow growth, morphological abnormalities, egg-laying defects) [9]: did not significantly rescue these defects | plates on which the supplement rescued the elo-5 RNAi defects [3]: 52/60 | rescue of mmBCFA deficiency [3]: rescue mmBCFA deficiency | rescue of elo-5(RNAi) phenotype [3]: fully rescued | growth of homozygous elo-5(gk208) on supplemented plates ([4]; plates supplemented or seeded): grew normally; also recorded: grew without any obvious morphological defects | development of early L1 arrested larvae [10]: able to elongate and proceed to the mid-L1 stage

CCC(C)CCCCCCCCCCCCC(=O)O (stereo not shown) [C17anteISO, 14-methyl hexadecanoic acid]
incorporation of the supplement into lipids and its elongation (GC) [1]: significantly incorporated into lipids | arrested L1 rescued to full growth and proliferation ([8]; four-day-old L1): ~1% | arrested L1 rescued to full growth and proliferation ([8]; two day-arrested L1): about 50% | plates on which the supplement rescued the elo-5 RNAi defects [3]: 58/60 | rescue of elo-5(RNAi) phenotype [3]: fully rescued

CCCCC/C=C\C/C=C\C/C=C\CCCCC(=O)O [C18:3 n6, reference compound]
plates on which the supplement rescued the elo-5 RNAi defects [3]: 0/30

CC(C)CCCCCCCCCCCCCCC(=O)O [C18ISO, reference compound]
plates on which the supplement rescued the elo-5 RNAi defects [3]: 0/30

CC(C)CCCCCCCCCCCCCCCC(=O)O [C19ISO, reference compound]
plates on which the supplement rescued the elo-5 RNAi defects [3]: 0/30

CC(C)CCCC(C)CCCC(C)CCCC(C)CC(=O)O (stereo not shown) [phytanic acid, reference compound]
plates on which the supplement rescued the elo-5 RNAi defects [3]: 0/30

From patent publication US20080214666A1, “Products and Methods Related to Mono-Methyl Branched-Chain Fatty Acids” (The Regents of the University of Colorado, priority 2004, published 2008)
